Literature values as cited in patent US20250041318A1, “STERILANTS COMPOSITION, KITS AND METHODS OF USE THEREOF” (priority 2021, published 2025).
Like-named read-outs stand apart in the source and are kept apart here.

What was measured:
pancreatic cancer = settings: preclinical mouse model of pancreatic cancer
[1] = target: LDH from goat liver (LDH-A4)
[2] = target: LDH from goat heart (LDH-B4)
[3] = target: LDH from goat testis (LDH-C4)
[4] = system: LDH isozymes (LDH-A4, LDH-B4, LDH-C4)
[5] = Lineweaver-Burk reciprocal plots

Row | Compound | Efficacy compared with gemcitabine (pancreatic cancer) | Ki ([1]; read-out: Ki against NAD) | Ki ([1]; read-out: Ki against NADH) | Ki ([1]; read-out: Ki against lactate) | Ki ([1]; read-out: Ki against pyruvate) | Ki ([2]; read-out: Ki against NAD) | Ki ([2]; read-out: Ki against NADH) | Ki ([2]; read-out: Ki against lactate) | Ki ([2]; read-out: Ki against pyruvate) | Ki ([3]; read-out: Ki against NAD) | Ki ([3]; read-out: Ki against NADH) | Ki ([3]; read-out: Ki against lactate) | Ki ([3]; read-out: Ki against pyruvate) | IC50 ([4]; 3.3 mM lactic acid and 1.8 mM NAD at 25 degrees C. and pH 9.0, read-out: IC50 for the lactate oxidation) | Manner of inhibition when NAD and NADH were varied as substrates [4, 5] | Manner of inhibition with respect to pyruvate and lactate [4, 5]
1 | CC(C)[C@]12O[C@H]1[C@@H]1O[C@]13[C@]1(O[C@H]1C[C@H]1C4=C(CC[C@@]13C)C(=O)OC4)[C@@H]2OCOP(=O)(O)O [Minnelide] | even more effective than gemcitabine | – | – | – | – | – | – | – | – | – | – | – | – | – | – | –
2 | Cc1cc2c(C(C)C)c(O)c(O)c(C=O)c2c(O)c1-c1c(C)cc2c(C(C)C)c(O)c(O)c(C=O)c2c1O [gossypol] | – | 94 µM | 33 µM | 85 µM | 20 µM | 108 µM | 43 µM | 85 µM | 34 µM | 83 µM | 45 µM | 125 µM | 29 µM | 125 µM | competitive | non-competitive
